Read-outs that look alike come from different tables or passages of the source.
Tested on: human peripheral blood mononuclear cells TNF-α
Assay: Repression of TNF-α in human peripheral blood mononuclear cells (LPS, ELISA)
Format: cell-based
Settings: PBMC, 3-fold diluted; for IC50: read-out: hPBMC IC50; for Emax: maximum effect value
Experimental: Experimental purpose: To express the anti-inflammatory activity of the test compound at the cellular level according to the level of TNF-α in human peripheral blood mononuclear cells (hPBMC).
• [0488] 1) The frozen cells were quickly thawed by continuous stirring in a 37° C. water bath. • [0489] 2) 25 mL of fresh pre-heated thawed culture medium was added to a 50 mL centrifuge tube. Then the cells were added gently, drop by drop. • [0490] 3) Cells were centrifuged at 2000 rpm for 10 min (ascending speed: 9, descending speed: 1). • [0491] 4) The supernatant was discarded and the cell particles were resuspended in 25 mL of freshly pre-heated RPMI 1640 culture medium.
• [0493] 5) After thawing and resuscitating the suspended cells, the number of cells was counted and the total number of cells required for the experiment was calculated. • [0494] 6) The cell suspension was diluted with an appropriate volume of cell culture medium. • [0495] 7) The cell suspension was poured into a sterile disposable container. • [0496] 8) 100,000 cells/(100 µL) of cell suspension was transferred to each well of a 96-well plate. • [0497] 9) The cell plates were placed in humidified air, 5% CO2 incubator, 37° C. for 2 hours.
[…] In the second step, the serum-free culture medium was diluted 125 times, and the concentration of DMSO was 0.8%. Then 16.8 µL of the compound diluted in culture medium was transferred to a 100 µL cell plate, and the concentration of DMSO was 0.114%.
After adding the compound, the cell plates were incubated in a 37° C. 5% CO2 incubator for 1 hour.
In the first step, LPS was diluted with ultrapure water to a storage concentration of 1 mg/mL. In the second step, the storage concentration of LPS was diluted to 1 µg/mL in serum-free culture medium. In the third step, serum-free culture medium was 1666.666-fold diluted. Then 16.8 µL of LPS that has been diluted with culture medium was transferred to a 116.8 µL cell plate. At this time, the final concentration of DMSO was 0.1%. After adding LPS, the cell plate was put into a 37° C., 5% CO2 incubator and incubated for 18 hours.
• [0505] 1. The TNF-α antibody was diluted to 1× in the coating solution, and then 100 µL per well was added to a 96-well high-binding performance plate, and the plate was sealed with a membrane and placed at 4° C. for 18 hours. • [0506] 2. 2000 mL of wash buffer was prepared to 1x for later use.
• [0508] 3. After the plate was coated overnight, the coating solution was poured out and washed 3 times with 300 µL of washing buffer per well. • [0509] 4. After the plate was washed, 200 µL of sealing buffer was added to each well, and the plate was sealed with membrane. Incubated for one hour in a 25° C. incubator. • [0510] 5. The cell plates incubated for 18 hours were placed in a centrifuge for centrifugation, temperature: 25° C., speed: 2000 rpm, time: 10 min, ascending speed: 9, descending speed: 1. After centrifugation, 100 µL of cell supernatant from each well was transferred to a 3599 cell plate, and then placed in a 4° C. refrigerator for later use. • [0511] 6. The cell supernatant was diluted 40 times with sealing buffer and placed in a 4° C. refrigerator for later use, and the standard was also placed in a 4° C. refrigerator for later use. • [0512] 7. After the sealing was completed, the sealing solution was poured out and washed three times with 300 µL of washing buffer per well. • [0513] 8. The diluted cell supernatant samples and standards were added to the ELISA plate, and the plate was sealed with membrane. Then incubated for 2 hours in a 25° C. incubator. • [0514] 9. The liquid in the plate was poured out and washed 5 times with 300 µL of washing buffer per well. • [0515] 10. Antibodies were prepared and 100 µL was added to each well and the plate was sealed with sealing membrane. Then incubated for one hour in a 25° C. incubator. • [0516] 11. The liquid in the plate was poured out and washed 7 times with 300 µL of washing buffer per well. • [0517] 12. […]

[1] = absolute IC50, test Top concentration 10000 nM, 8 concentration (unmarked)
[2] = test Top concentration 10000 nM, 8 concentration (unmarked)
[3] = absolute IC50, test Top concentration 100 nM, 8 concentration (***)
[4] = test Top concentration 100 nM, 8 concentration (***)
[5] = absolute IC50, test Top concentration 1000 nM, 8 concentration (*)
[6] = test Top concentration 1000 nM, 8 concentration (*)

Compound | IC50 [5] | Emax [6] | other results
C[C@H](NC(=O)C(C)(F)F)[C@H](Oc1ccc2c(cnn2-c2ccc3c(c2)CCCO3)c1)c1cc(F)cc(F)c1 [WX002] | – | – | IC50 [1]: 0.0151 µM; Emax [2]: 84.6%
C[C@H](NC(=O)C(C)(F)F)[C@H](Oc1ccc2c(cnn2-c2ccc3nccn3c2)c1)c1cc(F)cc(F)c1 [WX003] | – | – | IC50 [3]: 0.00097 µM; Emax [4]: 84.3%
CC(C)[C@H](NC(=O)C(C)(F)F)[C@H](Oc1ccc2c(cnn2-c2ccc3nccn3c2)c1)c1ccccc1 [WX004] | 0.0159 µM | 78.5% | –
CC(C)[C@H](NC(=O)C(C)(F)F)[C@H](Oc1ccc2c(cnn2-c2ccc3nncn3c2)c1)c1cc(F)cc(F)c1 [WX017] | – | – | IC50 [1]: 0.00763 µM; Emax [2]: 83.1%
CC(C)[C@H](NC(=O)C(C)(F)F)[C@H](Oc1ccc2c(cnn2-c2ccc3nncn3c2)c1)c1ccccc1 [WX018] | 0.0186 µM | 69.3% | –
C[C@H](NC(=O)C(C)(F)F)[C@H](Oc1ccc2c(cnn2-c2ccc3nncn3c2)c1)c1cc(F)cc(F)c1 [WX019] | – | – | IC50 [3]: 0.00098 µM; Emax [4]: 90%
C[C@H](NC(=O)C(C)(F)F)[C@H](Oc1ccc2c(cnn2-c2ccc3ncnn3c2)c1)c1cc(F)cc(F)c1 [WX034] | 0.0126 µM | 79.3% | –
C[C@H](NC(=O)C(C)(F)F)[C@H](Oc1ccc2c(cnn2-c2ccc3nnnn3c2)c1)c1cc(F)cc(F)c1 [WX035] | 0.0116 µM | 100% | –
C[C@H](NC(=O)C(C)(F)F)[C@H](Oc1ccc2c(cnn2-c2cnn(C)c2)c1)c1ccccc1 [WX043] | 0.0049 µM | 88.8% | –
C[C@H](NC(=O)C(C)(F)F)[C@H](Oc1ccc2c(cnn2-c2cn(C)nn2)c1)c1cc(F)cc(F)c1 [WX051] | – | – | IC50 (absolute IC50, test Top concentration 500 nM, 8 concentration (**)): 0.0104 µM; Emax (test Top concentration 500 nM, 8 concentration (**)): 74.9%
